Consider six molecules from US4206215A, “Antimicrobial bis-[4-(substituted-amino)-1-pyridinium]alkanes” (Sterling Drug Inc., priority 1977, dated 1980).

For one experiment, the system named is S. Aureus Smith. Description: In vitro antibacterial activity, MIC (modified Autotiter method). It is filed as cell-based, Staphylococcus aureus. The following applies: 18-20 hours at 37° C.; for MIC: Staphylococcus aureus, 20 h, read-out: MIC S. Aureus Smith. As for the experimental part: (§1) The antibacterial and antifungal activity of representative examples of the compounds of Formula I was determined using a modification of the Autotiter method described by Goss, et al. Applied Microbiology 16 (9) 1,414-1,416 (1968) in which a 1,000 mcg./ml. solution of the test compound is prepared. To the first cup of the Autotray is added 0.1 ml. of the test solution. Activation of the Autotiter initiates a sequence of operations by which 0.05 ml. of the test compound solution is withdrawn from the cup by a Microtiter transfer loop and diluted in 0.05 ml. of sterile water. Following this operation, 0.05 ml. of inoculated double-strength semisynthetic medium (glucose) is added automatically to each cup. The overall operation results in final drug concentrations ranging from 500 to 0.06 mcg./ml. in twofold decrements. […] The compounds were thus tested as solutions against a variety of gram positive and gram negative bacteria including Staphylococcus aureus, Proteus mirabilis, Escherichia coli, Klebsiella pneumoniae, Pseudomonas aeruginosa, Streptococcus pyogenes, and against such fungi as Aspergillus niger, Candida albicans and Trichophyton mentagrophytes.

Another experiment has as its system E. coli 100/B22. The experiment is described as above. Type of experiment: cell-based, Escherichia coli. The conditions noted are these: Escherichia coli, 100/B22, 20 h, 18-20 hours at 37° C.; read-out: MIC E. coli 100/B22. On the procedure:
as §1

For a further experiment, the system named is E. coli AB1932-1. The description is as above. Type of experiment: cell-based, Escherichia coli. The conditions noted are these: 18-20 hours at 37° C.; for MIC: Escherichia coli, AB19321, 20 h, read-out: MIC E. coli AB1932-1. As for the experimental part:
as §1

The next experiment relates to E. coli Vogel. The description is as above. Type of experiment: cell-based, Escherichia coli. The following applies: 18-20 hours at 37° C.; for MIC: Escherichia coli, 20 h, read-out: MIC E. coli Vogel. On the procedure: as §1
Another experiment concerns K. pneum. 39645. The description is as above. Type of experiment: cell-based, Klebsiella pneumoniae. The following applies: 18-20 hours at 37° C.; for MIC: Klebsiella pneumoniae, 20 h, read-out: MIC K. pneum. 39645. As for the experimental part:
as §1

Another experiment has as its system P. mirab. MGH-1. The experiment is described as above. Type of experiment: cell-based, Proteus mirabilis. The following applies: 18-20 hours at 37° C.; for MIC: Proteus mirabilis, 20 h, read-out: MIC P. mirab. MGH-1. On the procedure:
as §1

Another experiment deals with Ps. aerug. MGH-2. Described as above. It is filed as cell-based, Pseudomonas aeruginosa. The conditions noted are these: 18-20 hours at 37° C.; for MIC: Pseudomonas aeruginosa, 20 h, read-out: MIC Ps. aerug. MGH-2. On the procedure: as §1
For another experiment, the system named is S. pyogen. C203. The experiment is described as above. Type of experiment: cell-based, Streptococcus pyogenes. The conditions noted are these: 18-20 hours at 37° C.; for MIC: Streptococcus pyogenes, 20 h, read-out: MIC S. pyogen. C203. As for the experimental part:
as §1

A further experiment relates to A. niger 16404. Description: In vitro antifungal activity, MIC (modified Autotiter method). The conditions noted are these: 18-20 hours at 37° C.; for MIC: Aspergillus niger, 16404, 20 h, read-out: MIC A. niger 16404. Type of experiment: cell-based, Aspergillus niger. On the procedure:
as §1

The next experiment relates to C. albicans 10231. The experiment is described as above. Type of experiment: cell-based, Candida albicans. The conditions noted are these: 18-20 hours at 37° C.; for MIC: Candida albicans, 10231, 20 h, read-out: MIC C. albicans 10231. On the procedure: as §1
The test system of a further experiment is C. albicans Wisc. Described as above. The following applies: Candida albicans, 20 h, 18-20 hours at 37° C.; read-out: MIC C. albicans Wisc. It is filed as cell-based, Candida albicans. As for the experimental part:
as §1

The test system of a further experiment is T. menta. 9129. The description is as above. It is filed as cell-based, Trichophyton mentagrophytes. The following applies: 18-20 hours at 37° C.; for MIC: Trichophyton mentagrophytes, 20 h, read-out: MIC T. menta. 9129. On the procedure:
as §1

The structures appear in SMILES notation.

In the case of `CCCCCCNc1cc[n+](CCCCCCCCCCCC[n+]2ccc(NCCCCCC)cc2)cc1` [Example 8], the MIC was 0.25 µg/mL in the experiment on S. Aureus Smith; 0.5 µg/mL in the experiment with E. coli 100/B22; 1 µg/mL in the experiment on K. pneum. 39645; 7.8 µg/mL in the experiment on P. mirab. MGH-1; 15.6 µg/mL with Ps. aerug. MGH-2; 1 µg/mL in the experiment on S. pyogen. C203. Further, the MIC with C. albicans 10231 and in the experiment with C. albicans Wisc. was 1 µg/mL throughout. Also, in the experiment with E. coli AB1932-1, the “MIC E. coli AB1932-1” value was determined as 1.0 µg/mL. For the same molecule, the “MIC E. coli Vogel” value in the experiment on E. coli Vogel worked out at 1.0 µg/mL. For the same molecule, the “MIC A. niger 16404” value in the experiment on A. niger 16404 turned out to be 7.8 µg/mL. In addition, in the experiment on T. menta. 9129, the “MIC T. menta. 9129” value worked out at 1.0 µg/mL.
Turning to `CCCCCCCCNc1cc[n+](CCCCCCCCCC[n+]2ccc(NCCCCCCCC)cc2)cc1` [Example 10C, 1,10-bis-[4-(octylamino)-1-pyridinium]decane bis(1-oxo-2-pyridinethiolate)], the “MIC S. Aureus Smith” value with S. Aureus Smith was found to be 1.0 µg/mL. In addition, the “MIC E. coli Vogel” value with E. coli Vogel is 1.0 µg/mL. In the experiment on K. pneum. 39645, the “MIC K. pneum. 39645” value worked out at 1.95 µg/mL. The “MIC P. mirab. MGH-1” value against P. mirab. MGH-1 was determined as 1.95 µg/mL. Further, in the experiment on Ps. aerug. MGH-2, the “MIC Ps. aerug. MGH-2” value is 3.9 µg/mL. Besides, the “MIC S. pyogen. C203” value against S. pyogen. C203 is 0.5 µg/mL. Further, in the experiment on A. niger 16404, the “MIC A. niger 16404” value stood at 1.95 µg/mL. Besides, in the experiment with C. albicans 10231, the “MIC C. albicans 10231” value was 1.0 µg/mL. Further, the “MIC T. menta. 9129” value against T. menta. 9129 was 1.0 µg/mL.
With `CCCCCCNc1cc[n+](CCCCCCCCC[n+]2ccc(NCCCCCC)cc2)cc1` [Example 19, 1,9-bis-[4-(hexylamino)-1-pyridinium]-nonane dibromide], the MIC with S. Aureus Smith is 0.39 µg/mL; in the experiment on E. coli 100/B22 it was 1.95 µg/mL; in the experiment on E. coli AB1932-1, 1.95 µg/mL; in the experiment on E. coli Vogel, 1.95 µg/mL; in the experiment on K. pneum. 39645 it was 3.9 µg/mL; in the experiment with P. mirab. MGH-1, 125 µg/mL. Further, the MIC with Ps. aerug. MGH-2 was determined as 125 µg/mL; with S. pyogen. C203 it was 0.49 µg/mL; in the experiment on A. niger 16404, 15.6 µg/mL; with C. albicans 10231, 1.95 µg/mL; in the experiment with C. albicans Wisc. it was 3.9 µg/mL; with T. menta. 9129 it was 3.9 µg/mL.
Regarding `CCCCCCCNc1cc[n+](CCCC[n+]2ccc(NCCCCCCC)cc2)cc1` [Example 20, 1,4-bis-[4-(heptylamino)-1-pyridinium]butane dibromide], the MIC is 0.98 µg/mL with S. Aureus Smith; 15.6 µg/mL in the experiment with E. coli 100/B22; 7.8 µg/mL in the experiment on E. coli AB1932-1; 31.3 µg/mL with E. coli Vogel; > 125 µg/mL with K. pneum. 39645; > 250 µg/mL in the experiment on P. mirab. MGH-1. Further, the MIC with Ps. aerug. MGH-2 was > 250 µg/mL; in the experiment on S. pyogen. C203 it was 0.49 µg/mL; in the experiment with A. niger 16404, 15.6 µg/mL; in the experiment with C. albicans 10231, 15.6 µg/mL; with C. albicans Wisc., 15.6 µg/mL; in the experiment on T. menta. 9129, 3.9 µg/mL.
In the case of `CCCNc1cc[n+](CCCCCCCCCC[n+]2ccc(NCCC)cc2)cc1` [Example 30, 1,10-bis-[4-(propylamino)-1-pyridinium]decane dibromide], the MIC is 1.95 µg/mL in the experiment on S. Aureus Smith; > 62.5 µg/mL in the experiment with E. coli 100/B22; > 62.5 µg/mL in the experiment with E. coli AB1932-1; > 62.5 µg/mL in the experiment with E. coli Vogel; > 62.5 µg/mL in the experiment with K. pneum. 39645; > 250 µg/mL with P. mirab. MGH-1. Also, the MIC is > 62.5 µg/mL in the experiment on Ps. aerug. MGH-2; 3.9 µg/mL in the experiment with S. pyogen. C203; 31.3 µg/mL in the experiment on A. niger 16404; 15.6 µg/mL in the experiment on C. albicans 10231; 7.8 µg/mL with C. albicans Wisc.; 1 µg/mL in the experiment on T. menta. 9129.
With `Nc1cc[n+](CCCC[n+]2ccc(N)cc2)cc1` [III, 1,4-bis-(4-amino-1-pyridinium)butane dibromide, reference compound], the MIC was 125 µg/mL in the experiment with S. Aureus Smith; 250 µg/mL in the experiment on E. coli Vogel; > 500 µg/mL with K. pneum. 39645; > 500 µg/mL with P. mirab. MGH-1; > 500 µg/mL with Ps. aerug. MGH-2; 62.5 µg/mL in the experiment with S. pyogen. C203. Besides, the results for the MIC with A. niger 16404, in the experiment on C. albicans 10231 and in the experiment on T. menta. 9129 were 500 µg/mL, > 500 µg/mL and 500 µg/mL, respectively.
